A short description of assay [1]: Inhibition of human TREX1 exonuclease activity using labeled DNA oligonucleotide as substrate incubated for 30 mins and measured after 45 mins by fluorescence assay.
A short description of assay [2]: Inhibition of mouse TREX1 exonuclease activity using labeled DNA oligonucleotide as substrate incubated for 30 mins and measured after 45 mins by fluorescence assay.

We go through 45 molecules from ChEMBL document CHEMBL5050833, “Novel cyclic trex1 inhibitors” (2020).

The IC50 is the midpoint of a concentration-inhibition curve. Lower therefore signals greater potency in that assay.

As for `N#CCC[C@H](C(=O)NCc1ccc(Cl)c(Cl)c1)N1CCC(CCc2ccccc2)N2C[C@H](N)C[C@H]2C1=O` (stereo not given in full), the IC50 in assay [1] and in assay [2] was less than 1000 nM each time.

Turning to `CC(C)C[C@H](C(=O)NCc1ccccc1)N1CCC(CCc2ccccc2)N2C[C@H](N)C[C@H]2C1=O` (stereo not given in full), the IC50 entry is “in the range around 1000 nM” in assay [1] and “in the range around 10000 nM” in assay [2].

For the molecule `CC(C)C[C@H](C(=O)NCC1CCCCC1)N1CCC(CCc2ccccc2)N2C[C@H](N)C[C@H]2C1=O` (stereo not given in full), the IC50 result in assay [1] and in assay [2] was “in the range around 10000 nM” throughout.

For `CC(C)C[C@H](C(=O)NCc1ccc(Cl)c(Cl)c1)N1CCC(C)N2C[C@H](N)C[C@H]2C1=O` (stereo not given in full), the IC50 entry in assay [1] and in assay [2] was “in the range around 10000 nM” throughout.

Take `CC(C)C[C@H](C(=O)NCc1ccc(C(F)(F)F)cc1)N1CCC(CCc2ccccc2)N2C[C@H](N)C[C@H]2C1=O` (stereo not given in full): the 50% inhibitory concentration (IC50) in assay [1] and in assay [2] was less than 1000 nM throughout.

Consider `N[C@@H]1C[C@H]2C(=O)N([C@H](CCC(=O)O)C(=O)NCc3ccc(Cl)c(Cl)c3)CCC(CCc3ccccc3)N2C1` (stereo in doubt; form 1), for which the IC50 result in assay [1] and in assay [2] was “in the range around 10000 nM” in each case.

Take `N[C@@H]1C[C@H]2C(=O)N([C@H](CCc3nnn[nH]3)C(=O)NCc3ccc(Cl)c(Cl)c3)CCC(CCc3ccccc3)N2C1` (stereo not given in full): the IC50 in assay [1] and in assay [2] was less than 1000 nM throughout.

`CC(C)C[C@H](C(=O)N(C)Cc1ccc(C(F)(F)F)cc1)N1CCC(CCc2ccccc2)N2C[C@H](N)C[C@H]2C1=O` (stereo not given in full): the IC50 result in assay [1] and in assay [2] was “in the range around 1000 nM” in each case.

In the case of `C[C@H](C(=O)NCc1ccc(C(F)(F)F)cc1)N1CCC(CCc2ccccc2)N2C[C@H](N)C[C@H]2C1=O` (stereo not given in full), the IC50 in assay [1] and in assay [2] was less than 1000 nM each time.

`CC(C)C[C@H](C(=O)NCc1ccc(C#N)cc1)N1CCC(CCc2ccccc2)N2C[C@H](N)C[C@H]2C1=O` (stereo not given in full): the IC50 entry in assay [1] is “in the range around 1000 nM”; in assay [2], “in the range around 10000 nM”.

As to `CC(C)C[C@H](C(=O)N[C@@H](C)c1ccccc1)N1CCC(CCc2ccccc2)N2C[C@H](N)C[C@H]2C1=O` (stereo not given in full), the IC50 entry in assay [1] and in assay [2] was “in the range around 10000 nM” each time.

`CC(C)C[C@H](C(=O)NCc1cncs1)N1CCC(CCc2ccccc2)N2C[C@H](N)C[C@H]2C1=O` (stereo not given in full): the IC50 result in assay [1] is “in the range around 1000 nM”; in assay [2], “in the range around 10000 nM”.

Turning to `CC(C)C[C@H](C(=O)NCc1ccc(Cl)c(Cl)c1)N1CCC(Cc2ccccc2)N2C[C@H](N)C[C@H]2C1=O` (stereo not given in full), the IC50 entry in assay [1] and in assay [2] was “in the range around 1000 nM” throughout.

With `CC(C)C[C@H](C(=O)NCc1ccc(Cl)c(Cl)c1)N1CCC(CCc2ccccc2)N2C[C@H](N(C)C)C[C@H]2C1=O` (stereo not given in full), the results for the IC50 result in assay [1] and in assay [2] were “in the range around 10000 nM” and more than 100000 nM, respectively.

Regarding `CC(C)C[C@H](C(=O)NCc1cccc(Cl)c1)N1CCC(CCc2ccccc2)N2C[C@H](N)C[C@H]2C1=O` (stereo not given in full), the IC50 in assay [1] is less than 1000 nM; in assay [2], “in the range around 1000 nM”.

Take `N[C@@H]1C[C@H]2C(=O)N([C@H](CCc3nsc(=O)[nH]3)C(=O)NCc3ccc(Cl)c(Cl)c3)CCC(CCc3ccccc3)N2C1` (stereo not given in full): the IC50 in assay [1] and in assay [2] was less than 1000 nM each time.

On to `CC(C)C[C@H](C(=O)NCc1ccc(Cl)c(Cl)c1)N1CCC(COc2ccccc2)N2C[C@H](N)C[C@H]2C1=O` (stereo not given in full), for which the values for the IC50 in assay [1] and in assay [2] were less than 1000 nM and “in the range around 1000 nM”, respectively.

On to `CC(C)C[C@H](C(=O)NCc1cnccn1)N1CCC(CCc2ccccc2)N2C[C@H](N)C[C@H]2C1=O` (stereo not given in full), for which the IC50 entry in assay [1] is “in the range around 1000 nM”; in assay [2] it was “in the range around 10000 nM”.

In the case of `CC(C)C[C@H](CNC(=O)c1ccc(Cl)cc1)N1CCC(CCc2ccccc2)N2C[C@H](N)C[C@H]2C1=O` (stereo not given in full), the IC50 entry in assay [1] and in assay [2] was “in the range around 1000 nM” in each case.

As to `CC(C)C[C@H](C(=O)NCc1ccc(Cl)c(Cl)c1)N1CCC(CCc2ccccc2)N(CCN)CC1=O` (stereo not given in full), the IC50 entry is “in the range around 1000 nM” in assay [1] and “in the range around 10000 nM” in assay [2].

In the case of `CCC[C@H](C(=O)NS(=O)(=O)c1ccc(Cl)c(Cl)c1)N1CCC(CCc2ccccc2)N2C[C@H](N)C[C@H]2C1=O` (stereo not given in full), the IC50 in assay [1] is less than 1000 nM; in assay [2], “in the range around 1000 nM”.

On to `CC(C)C[C@H](C(=O)NCc1ccc(Cl)cc1)N1CCC(C[S@+]([O-])c2ccccc2)N2C[C@H](N)C[C@H]2C1=O` (stereo not given in full), for which the figures for the IC50 in assay [1] and in assay [2] were less than 1000 nM and “in the range around 1000 nM”, respectively.

Turning to `CC(C)C[C@H](C(=O)NCc1ccc(F)cc1)N1CCC(CCc2ccccc2)N2C[C@H](N)C[C@H]2C1=O` (stereo not given in full), the IC50 in assay [1] was less than 1000 nM; in assay [2], “in the range around 1000 nM”.

Consider `CC(C)C[C@H](C(=O)NS(=O)(=O)c1ccccc1)N1CCC(CCc2ccccc2)N2C[C@H](N)C[C@H]2C1=O` (stereo not given in full), for which the concentration for half-maximal inhibition (IC50) entry in assay [1] and in assay [2] was “in the range around 1000 nM” in each case.

With `CC(=O)N[C@@H]1C[C@H]2C(=O)N([C@H](CC(C)C)C(=O)NCc3ccc(Cl)c(Cl)c3)CCC(CCc3ccccc3)N2C1` (stereo not given in full), the values for the IC50 result in assay [1] and in assay [2] were “in the range around 1000 nM” and “in the range around 10000 nM”, respectively.

On to `CC(C)C[C@H](C(=O)NCc1ccc(Cl)cc1)N1CCC(CCc2ccccc2)N2C[C@H](N)C[C@H]2C1=O` (stereo not given in full), for which the IC50 in assay [1] was less than 1000 nM; in assay [2] it was “in the range around 1000 nM”.

For the molecule `CC(C)C[C@H](C(=O)NCc1ccc(Cl)cc1)N1CCC(C[S@@+]([O-])c2ccccc2)N2C[C@H](N)C[C@H]2C1=O` (stereo not given in full), the IC50 in assay [1] was less than 1000 nM; in assay [2], “in the range around 1000 nM”.

For the molecule `CC(C)C[C@H](C(=O)NS(=O)(=O)c1ccc(Cl)c(Cl)c1)N1CCC(CCc2ccccc2)N2C[C@H](N)C[C@H]2C1=O` (stereo not given in full), the IC50 in assay [1] and in assay [2] was less than 1000 nM throughout.

Turning to `CC(C)C[C@H](C(=O)NCc1ccc(Cl)c(Cl)c1)N1CCC(CSc2ccccc2)N2C[C@H](N)C[C@H]2C1=O` (stereo not given in full), the IC50 in assay [1] and in assay [2] was less than 1000 nM each time.

On to `CC(C)C[C@H](C(=O)NCc1cscn1)N1CCC(CCc2ccccc2)N2C[C@H](N)C[C@H]2C1=O` (stereo not given in full), for which the IC50 result was “in the range around 1000 nM” in assay [1] and “in the range around 10000 nM” in assay [2].

For the molecule `CC(C)C[C@H](C(=O)N[C@H](C)c1ccccc1)N1CCC(CCc2ccccc2)N2C[C@H](N)C[C@H]2C1=O` (stereo not given in full), the IC50 entry in assay [1] and in assay [2] was “in the range around 10000 nM” in each case.

`CC(C)C[C@H](C(=O)NCc1ccc(Cl)cc1Cl)N1CCC(CCc2ccccc2)N2C[C@H](N)C[C@H]2C1=O` (stereo not given in full): the values for the IC50 in assay [1] and in assay [2] were less than 1000 nM and “in the range around 1000 nM”, respectively.

`CC(C)C[C@H](C(=O)NCc1cc(Cl)cc(Cl)c1)N1CCC(CCc2ccccc2)N2C[C@H](N)C[C@H]2C1=O` (stereo not given in full): the values for the IC50 in assay [1] and in assay [2] were less than 1000 nM and “in the range around 1000 nM”, respectively.

With `N[C@@H]1C[C@H]2C(=O)N([C@H](CCC(=O)O)C(=O)NCc3ccc(Cl)c(Cl)c3)CCC(CCc3ccccc3)N2C1` (stereo in doubt; form 2), the IC50 in assay [1] and in assay [2] was less than 1000 nM in each case.

On to `Cc1nnc(CC[C@H](C(=O)NCc2ccc(Cl)c(Cl)c2)N2CCC(CCc3ccccc3)N3C[C@H](N)C[C@H]3C2=O)[nH]1` (stereo not given in full), for which the half-inhibitory concentration (IC50) in assay [1] and in assay [2] was less than 1000 nM each time.

For the molecule `Cc1ccc(CNC(=O)[C@@H](CC(C)C)N2CCC(CCc3ccccc3)N3C[C@H](N)C[C@H]3C2=O)cc1` (stereo not given in full), the IC50 entry in assay [1] and in assay [2] was “in the range around 1000 nM” each time.

For `CC(C)C[C@H](C(=O)NCc1ccc(Cl)c(Cl)c1)N1CC(CCc2ccccc2)N2C[C@H](N)C[C@H]2C1=O` (stereo not given in full), the IC50 result in assay [1] and in assay [2] was “in the range around 10000 nM” in each case.

Turning to `N[C@@H]1C[C@H]2C(=O)N([C@H](CC(=O)O)C(=O)NCc3ccc(Cl)c(Cl)c3)CCC(CCc3ccccc3)N2C1` (stereo not given in full), the IC50 in assay [1] and in assay [2] was less than 1000 nM in each case.

With `N[C@@H]1C[C@H]2C(=O)N([C@H](CCC(=O)O)C(=O)NCc3ccc(C(F)(F)F)cc3)CCC(CCc3ccccc3)N2C1` (stereo in doubt; form 2), the IC50 in assay [1] and in assay [2] was less than 1000 nM throughout.

For `CC(C)C[C@H](C(=O)NCc1ccc(Cl)cc1)N1CCC(CS(=O)(=O)c2ccccc2)N2C[C@H](N)C[C@H]2C1=O` (stereo not given in full), the IC50 result in assay [1] is “in the range around 1000 nM”; in assay [2], “in the range around 10000 nM”.

Regarding `CC(C)C[C@H](C(=O)NCc1ccccc1Cl)N1CCC(CCc2ccccc2)N2C[C@H](N)C[C@H]2C1=O` (stereo not given in full), the IC50 result was “in the range around 1000 nM” in assay [1] and “in the range around 10000 nM” in assay [2].

On to `N[C@@H]1C[C@H]2C(=O)N([C@H](CCC(=O)O)C(=O)NCc3ccc(C(F)(F)F)cc3)CCC(CCc3ccccc3)N2C1` (stereo in doubt; form 1), for which the IC50 entry in assay [1] and in assay [2] was “in the range around 10000 nM” in each case.

As to `NC(=O)CC[C@H](C(=O)NCc1ccc(Cl)c(Cl)c1)N1CCC(CCc2ccccc2)N2C[C@H](N)C[C@H]2C1=O` (stereo not given in full), the IC50 in assay [1] and in assay [2] was less than 1000 nM each time.

For `CC(C)C[C@H](C(=O)NCCc1ccc(Cl)c(Cl)c1)N1CCC(CCc2ccccc2)N2C[C@H](N)C[C@H]2C1=O` (stereo not given in full), the IC50 in assay [1] was less than 1000 nM; in assay [2], “in the range around 1000 nM”.

As for `CC(C)C[C@H](C(=O)NCc1ccc(Cl)c(Cl)c1)N1CCC(CCc2ccc(Cl)cc2)N2C[C@H](N)C[C@H]2C1=O` (stereo not given in full), the results for the IC50 in assay [1] and in assay [2] were less than 1000 nM and “in the range around 1000 nM”, respectively.
